Laboratory results published in patent US7635572B2, “Methods for conducting assays for enzyme activity on protein microarrays” (Life Technologies Corporation, priority 2004, dated 2009).

Tests used:
Assay in all cases: Further analysis of a plurality of inhibitors and a plurality of kinases on microarray (Example IX, Table 5);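 further: inhibition of each kinase by the inhibitors is given as a qualitative level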;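 on Inhibition level, DAPK2: level 0 no or unclear inhibition to Level 2 substantial inhibition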;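 on Inhibition level, DYRK1A: level 0 none or unclear Level 1 marginal Level 2 substantial inhibition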;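 on Inhibition level, FGFR2: level 0 none or unclear then 1 little or marginal then 2 substantial inhibition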;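 on Inhibition level, Homo sapiens in: level 0 none or unclear Level 1 marginal Level 2 substantial inhibition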;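 on Inhibition level, Homo sapiens, o: level 0 none or unclear Level 1 marginal Level 2 substantial inhibition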;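 on Inhibition level, ITK: level 0 none or unclear then 1 little or marginal then 2 substantial inhibition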;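 on Inhibition level, MAP3K7: level 0 none or unclear then 1 little or marginal then 2 substantial inhibition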;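 on Inhibition level, PTK2B: level 0 no or unclear inhibition to Level 2 substantial inhibition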;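 on Inhibition level, TLK2: level 0 none or unclear Level 1 marginal Level 2 substantial inhibition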
Type in all cases: biochemical
[1] = biological target: plurality of kinases (Table 5) (Homo sapiens, UniProt P21802)
[2] = biological target: T1, plurality of kinases (Table 5) (Homo sapiens, UniProt Q08881); settings: plate E4; inhibitor 100 uM
T1 sequence (Q08881 1-620): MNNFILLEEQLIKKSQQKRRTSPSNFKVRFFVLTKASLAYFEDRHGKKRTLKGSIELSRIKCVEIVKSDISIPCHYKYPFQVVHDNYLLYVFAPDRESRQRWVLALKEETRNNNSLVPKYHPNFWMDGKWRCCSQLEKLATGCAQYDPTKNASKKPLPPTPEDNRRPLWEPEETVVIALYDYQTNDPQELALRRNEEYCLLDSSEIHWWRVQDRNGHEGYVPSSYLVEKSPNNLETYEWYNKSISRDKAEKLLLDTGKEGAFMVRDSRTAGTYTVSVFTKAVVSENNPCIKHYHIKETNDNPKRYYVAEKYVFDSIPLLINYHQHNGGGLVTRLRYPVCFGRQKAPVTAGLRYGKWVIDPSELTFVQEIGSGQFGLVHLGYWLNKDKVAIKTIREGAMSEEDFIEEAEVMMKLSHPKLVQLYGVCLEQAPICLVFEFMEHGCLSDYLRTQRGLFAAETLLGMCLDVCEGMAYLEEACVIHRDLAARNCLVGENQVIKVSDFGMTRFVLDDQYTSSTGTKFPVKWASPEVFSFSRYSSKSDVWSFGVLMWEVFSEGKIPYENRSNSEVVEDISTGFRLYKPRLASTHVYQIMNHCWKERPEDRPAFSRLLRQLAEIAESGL

[3] = biological target: plurality of kinases (Table 5) (Homo sapiens, UniProt P00519); settings: plate B6
[4] = biological target: plurality of kinases (Table 5) (Homo sapiens, UniProt Q13627); settings: plate G6
[5] = biological target: plurality of kinases (Table 5) (Homo sapiens, UniProt P07949); settings: plate B7
[6] = biological target: plurality of kinases (Table 5) (Homo sapiens, UniProt Q9UIK4); settings: plate H3
[7] = biological target: plurality of kinases (Table 5) (Homo sapiens, UniProt O75716); settings: plate C3
[8] = biological target: plurality of kinases (Table 5) (Homo sapiens, UniProt Q86UE8); settings: plate C8
[9] = biological target: plurality of kinases (Table 5) (Homo sapiens, UniProt Q14289); settings: plate G5
[10] = test system: plurality of kinases (Table 5); settings: for Inhibition level, Homo sapiens c: plate F4; for Inhibition level, Homo sapiens, o: plate F5; for Inhibition level, Homo sapiens, B: plate F7; for Inhibition level, Homo sapiens in: plate F9; for Inhibition level, Homo sapiens p: plate F10
[11] = biological target: plurality of kinases (Table 5) (Homo sapiens, UniProt Q7KZI7); settings: plate C4; inhibitor 100 uM
[12] = biological target: T2, plurality of kinases (Table 5) (Homo sapiens, UniProt Q99759); settings: plate A1
T2 sequence (Q99759 1-626): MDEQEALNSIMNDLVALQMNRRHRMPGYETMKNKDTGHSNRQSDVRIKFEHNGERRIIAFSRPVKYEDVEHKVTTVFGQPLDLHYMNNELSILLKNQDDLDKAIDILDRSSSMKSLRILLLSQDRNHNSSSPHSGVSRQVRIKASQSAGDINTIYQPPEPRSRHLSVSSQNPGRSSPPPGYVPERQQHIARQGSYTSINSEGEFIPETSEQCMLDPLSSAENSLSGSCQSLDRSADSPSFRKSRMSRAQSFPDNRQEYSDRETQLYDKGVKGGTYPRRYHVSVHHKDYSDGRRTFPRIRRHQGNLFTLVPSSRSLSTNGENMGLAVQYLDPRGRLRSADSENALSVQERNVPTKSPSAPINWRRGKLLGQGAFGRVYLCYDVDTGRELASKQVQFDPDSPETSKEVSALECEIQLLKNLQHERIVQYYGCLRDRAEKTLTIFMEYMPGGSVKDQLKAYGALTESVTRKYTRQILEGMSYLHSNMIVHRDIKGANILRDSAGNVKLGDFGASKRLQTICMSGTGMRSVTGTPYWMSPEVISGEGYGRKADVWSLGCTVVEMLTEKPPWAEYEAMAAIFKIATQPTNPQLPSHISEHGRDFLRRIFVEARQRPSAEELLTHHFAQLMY

[13] = biological target: T3, plurality of kinases (Table 5) (Homo sapiens, UniProt O43318); settings: plate G9
T3 sequence (O43318 1-606): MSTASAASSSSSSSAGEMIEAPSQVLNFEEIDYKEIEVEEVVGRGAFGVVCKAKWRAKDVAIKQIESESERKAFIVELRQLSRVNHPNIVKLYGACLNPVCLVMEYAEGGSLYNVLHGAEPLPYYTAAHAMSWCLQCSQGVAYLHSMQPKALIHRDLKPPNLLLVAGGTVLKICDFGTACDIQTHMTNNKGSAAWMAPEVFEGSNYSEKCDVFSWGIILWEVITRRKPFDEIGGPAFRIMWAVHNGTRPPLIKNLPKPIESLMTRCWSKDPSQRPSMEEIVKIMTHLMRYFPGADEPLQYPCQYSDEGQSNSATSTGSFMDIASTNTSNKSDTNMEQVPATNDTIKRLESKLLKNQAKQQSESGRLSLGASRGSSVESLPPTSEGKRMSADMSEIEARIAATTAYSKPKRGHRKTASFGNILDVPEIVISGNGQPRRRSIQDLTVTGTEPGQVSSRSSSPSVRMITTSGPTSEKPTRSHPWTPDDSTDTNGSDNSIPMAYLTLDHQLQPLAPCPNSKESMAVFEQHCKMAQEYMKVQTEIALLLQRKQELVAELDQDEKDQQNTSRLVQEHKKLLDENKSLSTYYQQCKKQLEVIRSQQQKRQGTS

plurality of kinases (Table 5) (Homo sapiens, UniProt O75716), sequence (O75716 whole entry): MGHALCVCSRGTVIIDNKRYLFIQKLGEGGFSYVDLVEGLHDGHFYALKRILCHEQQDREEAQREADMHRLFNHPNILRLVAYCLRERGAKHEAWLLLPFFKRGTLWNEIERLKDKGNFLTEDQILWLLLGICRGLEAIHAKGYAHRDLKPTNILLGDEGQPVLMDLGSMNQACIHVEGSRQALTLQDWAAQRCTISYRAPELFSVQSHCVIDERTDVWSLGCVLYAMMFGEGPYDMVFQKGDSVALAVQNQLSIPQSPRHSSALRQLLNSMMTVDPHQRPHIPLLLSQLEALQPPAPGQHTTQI
plurality of kinases (Table 5) (Homo sapiens, UniProt P00519), sequence (P00519 whole entry): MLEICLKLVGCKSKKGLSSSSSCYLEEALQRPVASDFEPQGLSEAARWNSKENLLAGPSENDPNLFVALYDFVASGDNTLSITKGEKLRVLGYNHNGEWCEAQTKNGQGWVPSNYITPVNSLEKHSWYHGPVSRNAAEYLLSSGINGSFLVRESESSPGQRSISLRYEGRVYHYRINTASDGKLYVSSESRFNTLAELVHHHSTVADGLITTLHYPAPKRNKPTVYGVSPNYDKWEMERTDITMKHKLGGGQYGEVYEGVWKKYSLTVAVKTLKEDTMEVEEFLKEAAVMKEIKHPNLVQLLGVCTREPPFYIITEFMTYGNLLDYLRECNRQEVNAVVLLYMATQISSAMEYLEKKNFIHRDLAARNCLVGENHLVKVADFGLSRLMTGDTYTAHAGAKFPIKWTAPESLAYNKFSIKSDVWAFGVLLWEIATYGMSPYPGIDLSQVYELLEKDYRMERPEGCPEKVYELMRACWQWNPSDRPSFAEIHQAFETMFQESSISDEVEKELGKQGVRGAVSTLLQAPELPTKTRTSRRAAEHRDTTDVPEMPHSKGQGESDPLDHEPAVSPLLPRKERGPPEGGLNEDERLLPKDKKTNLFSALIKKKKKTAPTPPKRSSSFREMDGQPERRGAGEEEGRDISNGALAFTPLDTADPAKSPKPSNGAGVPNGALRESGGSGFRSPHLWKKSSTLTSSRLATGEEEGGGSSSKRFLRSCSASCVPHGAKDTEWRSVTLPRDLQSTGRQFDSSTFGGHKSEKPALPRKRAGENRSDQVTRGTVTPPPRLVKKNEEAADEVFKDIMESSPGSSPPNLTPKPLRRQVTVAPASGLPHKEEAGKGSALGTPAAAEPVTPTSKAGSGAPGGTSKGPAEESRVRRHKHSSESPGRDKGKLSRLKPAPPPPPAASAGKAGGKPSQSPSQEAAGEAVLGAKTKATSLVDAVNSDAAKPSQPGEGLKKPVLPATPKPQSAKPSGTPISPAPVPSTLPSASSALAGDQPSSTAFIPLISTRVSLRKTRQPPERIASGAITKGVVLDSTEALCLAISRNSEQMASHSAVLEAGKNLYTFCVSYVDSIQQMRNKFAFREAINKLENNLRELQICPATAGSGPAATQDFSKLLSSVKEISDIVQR
plurality of kinases (Table 5) (Homo sapiens, UniProt Q7KZI7), sequence (Q7KZI7 whole entry): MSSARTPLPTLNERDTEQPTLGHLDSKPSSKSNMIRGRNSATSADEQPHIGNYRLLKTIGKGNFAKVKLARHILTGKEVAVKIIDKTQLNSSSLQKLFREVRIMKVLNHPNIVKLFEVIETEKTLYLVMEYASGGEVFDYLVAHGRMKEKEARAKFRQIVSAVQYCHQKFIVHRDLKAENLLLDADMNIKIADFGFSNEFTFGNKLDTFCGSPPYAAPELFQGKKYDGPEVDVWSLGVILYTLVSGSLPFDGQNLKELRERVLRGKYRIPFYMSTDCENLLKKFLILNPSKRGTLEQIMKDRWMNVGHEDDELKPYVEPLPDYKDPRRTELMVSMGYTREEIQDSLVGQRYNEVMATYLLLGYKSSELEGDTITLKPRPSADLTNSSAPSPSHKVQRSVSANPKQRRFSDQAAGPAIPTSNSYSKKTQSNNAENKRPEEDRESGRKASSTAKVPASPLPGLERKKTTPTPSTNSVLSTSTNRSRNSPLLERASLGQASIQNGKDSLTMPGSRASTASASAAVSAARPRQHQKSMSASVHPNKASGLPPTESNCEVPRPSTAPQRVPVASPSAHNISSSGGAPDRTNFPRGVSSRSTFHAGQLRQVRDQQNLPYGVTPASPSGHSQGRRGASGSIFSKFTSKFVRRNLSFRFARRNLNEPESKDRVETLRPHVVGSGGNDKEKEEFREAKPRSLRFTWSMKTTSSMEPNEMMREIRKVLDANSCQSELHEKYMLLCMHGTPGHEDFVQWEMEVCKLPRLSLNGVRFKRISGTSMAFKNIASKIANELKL
plurality of kinases (Table 5) (Homo sapiens, UniProt P21802), sequence (P21802 22-821): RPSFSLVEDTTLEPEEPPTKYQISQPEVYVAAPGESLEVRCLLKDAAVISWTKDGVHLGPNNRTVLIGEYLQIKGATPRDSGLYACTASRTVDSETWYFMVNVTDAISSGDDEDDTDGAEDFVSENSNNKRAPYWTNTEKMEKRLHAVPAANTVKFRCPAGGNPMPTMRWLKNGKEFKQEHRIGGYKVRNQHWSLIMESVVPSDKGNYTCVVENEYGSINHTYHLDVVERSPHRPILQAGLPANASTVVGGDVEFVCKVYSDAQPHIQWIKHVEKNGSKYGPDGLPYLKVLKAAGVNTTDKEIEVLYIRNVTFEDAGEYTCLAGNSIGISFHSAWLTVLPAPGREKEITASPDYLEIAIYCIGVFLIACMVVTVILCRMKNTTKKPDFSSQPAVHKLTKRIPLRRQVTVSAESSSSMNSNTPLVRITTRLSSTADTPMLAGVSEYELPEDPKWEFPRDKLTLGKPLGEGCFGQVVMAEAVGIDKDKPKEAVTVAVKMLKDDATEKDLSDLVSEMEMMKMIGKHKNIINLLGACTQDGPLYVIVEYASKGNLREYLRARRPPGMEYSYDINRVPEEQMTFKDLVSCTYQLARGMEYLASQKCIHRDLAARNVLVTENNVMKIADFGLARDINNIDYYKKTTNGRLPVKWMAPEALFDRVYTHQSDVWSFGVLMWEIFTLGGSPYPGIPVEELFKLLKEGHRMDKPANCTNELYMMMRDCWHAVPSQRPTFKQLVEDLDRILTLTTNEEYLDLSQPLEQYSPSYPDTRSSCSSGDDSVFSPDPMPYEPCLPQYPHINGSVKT
plurality of kinases (Table 5) (Homo sapiens, UniProt P07949), sequence (P07949 29-1114): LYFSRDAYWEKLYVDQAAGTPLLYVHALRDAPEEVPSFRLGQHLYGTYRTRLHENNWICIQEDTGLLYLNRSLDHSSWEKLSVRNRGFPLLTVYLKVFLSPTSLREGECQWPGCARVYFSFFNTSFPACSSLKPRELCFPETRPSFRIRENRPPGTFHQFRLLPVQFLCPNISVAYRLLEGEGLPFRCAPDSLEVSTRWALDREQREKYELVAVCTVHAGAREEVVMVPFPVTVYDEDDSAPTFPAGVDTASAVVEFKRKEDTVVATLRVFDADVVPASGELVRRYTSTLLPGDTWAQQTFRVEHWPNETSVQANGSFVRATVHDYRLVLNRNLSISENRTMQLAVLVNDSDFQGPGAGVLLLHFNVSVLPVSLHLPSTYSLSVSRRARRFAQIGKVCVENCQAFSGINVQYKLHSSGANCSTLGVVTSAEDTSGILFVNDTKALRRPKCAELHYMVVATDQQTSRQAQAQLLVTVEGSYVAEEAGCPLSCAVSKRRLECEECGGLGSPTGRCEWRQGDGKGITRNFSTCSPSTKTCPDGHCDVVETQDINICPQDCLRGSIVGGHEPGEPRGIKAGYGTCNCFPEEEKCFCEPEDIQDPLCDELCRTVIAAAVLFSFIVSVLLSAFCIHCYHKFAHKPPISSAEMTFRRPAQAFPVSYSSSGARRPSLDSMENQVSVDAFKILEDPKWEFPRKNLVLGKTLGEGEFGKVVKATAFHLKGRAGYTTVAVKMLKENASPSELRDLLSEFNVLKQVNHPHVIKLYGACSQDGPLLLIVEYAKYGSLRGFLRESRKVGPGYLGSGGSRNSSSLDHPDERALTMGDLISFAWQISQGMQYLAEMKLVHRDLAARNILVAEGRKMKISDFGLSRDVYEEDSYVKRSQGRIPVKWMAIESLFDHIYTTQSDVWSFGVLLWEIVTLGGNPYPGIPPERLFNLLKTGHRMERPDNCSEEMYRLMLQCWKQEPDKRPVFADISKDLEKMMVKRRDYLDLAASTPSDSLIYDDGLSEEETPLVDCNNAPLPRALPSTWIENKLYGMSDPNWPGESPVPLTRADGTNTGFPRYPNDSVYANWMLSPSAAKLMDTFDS
plurality of kinases (Table 5) (Homo sapiens, UniProt Q86UE8), sequence (Q86UE8 whole entry): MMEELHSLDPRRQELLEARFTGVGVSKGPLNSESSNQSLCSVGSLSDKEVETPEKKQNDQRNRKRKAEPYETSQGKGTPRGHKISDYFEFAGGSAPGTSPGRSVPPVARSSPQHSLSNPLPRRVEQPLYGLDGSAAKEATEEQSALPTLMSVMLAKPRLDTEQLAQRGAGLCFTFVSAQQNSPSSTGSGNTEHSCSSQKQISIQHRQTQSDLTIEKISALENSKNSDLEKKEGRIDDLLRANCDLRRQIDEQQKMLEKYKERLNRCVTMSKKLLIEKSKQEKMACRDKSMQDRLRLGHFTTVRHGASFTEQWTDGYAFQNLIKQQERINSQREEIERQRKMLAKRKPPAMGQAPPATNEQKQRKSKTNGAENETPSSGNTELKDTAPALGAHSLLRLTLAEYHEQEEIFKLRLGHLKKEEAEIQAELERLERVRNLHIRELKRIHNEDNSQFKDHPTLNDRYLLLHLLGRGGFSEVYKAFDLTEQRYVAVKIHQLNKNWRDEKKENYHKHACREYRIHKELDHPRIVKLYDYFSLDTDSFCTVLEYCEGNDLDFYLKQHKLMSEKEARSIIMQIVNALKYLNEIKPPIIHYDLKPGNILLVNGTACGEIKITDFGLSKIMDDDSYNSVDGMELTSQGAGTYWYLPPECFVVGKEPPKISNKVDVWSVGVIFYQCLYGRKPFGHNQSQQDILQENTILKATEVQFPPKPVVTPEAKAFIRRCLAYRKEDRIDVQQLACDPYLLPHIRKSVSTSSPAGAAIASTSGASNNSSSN

SMILES: O=S(=O)(NCCNC/C=C/c1ccc(Br)cc1)c1cccc2cnccc12 [H-89]
- Inhibition level, FGFR2 ([1]; plate B4, inhibitor 100 uM): 2
- Inhibition level, FGFR2 ([1]; plate G8, inhibitor 100 uM): 2
- Inhibition level, ITK [2]: 1
- Inhibition level, ABL1 ([3]; inhibitor 100 uM): 0
- Inhibition level, DYRK1A ([4]; inhibitor 100 uM): 2
- Inhibition level, RET ([5]; inhibitor 100 uM): 0
- Inhibition level, DAPK2 ([6]; inhibitor 100 uM): 2
- Inhibition level, STK16 ([7]; inhibitor 100 uM): 2
- Inhibition level, TLK2 ([8]; inhibitor 100 uM): 2
- Inhibition level, PTK2B ([9]; inhibitor 100 uM): 1
- Inhibition level, Homo sapiens, S ([10]; plate E9, inhibitor 100 uM): 2
- Inhibition level, Homo sapiens, s ([10]; plate E11, inhibitor 100 uM): 1
- Inhibition level, Homo sapiens, s ([10]; plate F3, inhibitor 100 uM): 2
- Inhibition level, Homo sapiens c ([10]; inhibitor 100 uM): 2
- Inhibition level, Homo sapiens, o ([10]; inhibitor 100 uM): 1
- Inhibition level, Homo sapiens, S ([10]; plate F6, inhibitor 100 uM): 2
- Inhibition level, Homo sapiens, B ([10]; inhibitor 100 uM): 0
- Inhibition level, Homo sapiens, s ([10]; plate F8, inhibitor 100 uM): 1
- Inhibition level, Homo sapiens in ([10]; inhibitor 100 uM): 2
- Inhibition level, Homo sapiens p ([10]; inhibitor 100 uM): 2
- Inhibition level, MARK2 [11]: 2
- Inhibition level, MAP3K3 ([12]; inhibitor 100 uM): 2
- Inhibition level, MAP3K7 ([13]; inhibitor 100 uM): 2

SMILES: Cn1cc(C2=C(c3cn(CCCSC(=N)N)c4ccccc34)C(=O)NC2=O)c2ccccc21 [Ro-31-8220]
- Inhibition level, FGFR2 ([1]; plate B4, Ro-31-8220, conc. not given): 0
- Inhibition level, FGFR2 ([1]; plate B4, inhibitor 100 uM): 2
- Inhibition level, FGFR2 ([1]; plate G8, Ro-31-8220 90 uM): 2
- Inhibition level, FGFR2 ([1]; plate G8, inhibitor 100 uM): 2
- Inhibition level, ITK [2]: 2
- Inhibition level, ABL1 ([3]; Ro-31-8220, conc. not given): 0
- Inhibition level, ABL1 ([3]; inhibitor 100 uM): 2
- Inhibition level, DYRK1A ([4]; Ro-31-8220 90 uM): 0
- Inhibition level, DYRK1A ([4]; inhibitor 100 uM): 2
- Inhibition level, RET ([5]; Ro-31-8220, conc. not given): 2
- Inhibition level, RET ([5]; inhibitor 100 uM): 0
- Inhibition level, DAPK2 ([6]; Ro-31-8220, conc. not given): 2
- Inhibition level, DAPK2 ([6]; inhibitor 100 uM): 2
- Inhibition level, STK16 ([7]; Ro-31-8220 90 uM): 2
- Inhibition level, STK16 ([7]; inhibitor 100 uM): 1
- Inhibition level, TLK2 ([8]; Ro-31-8220 90 uM): 2
- Inhibition level, TLK2 ([8]; inhibitor 100 uM): 1
- Inhibition level, PTK2B ([9]; Ro-31-8220 90 uM): 0
- Inhibition level, PTK2B ([9]; inhibitor 100 uM): 2
- Inhibition level, Homo sapiens, S ([10]; plate E9, inhibitor 100 uM): 0
- Inhibition level, Homo sapiens, s ([10]; plate E11, inhibitor 100 uM): 2
- Inhibition level, Homo sapiens, s ([10]; plate F3, Ro-31-8220, conc. not given): 2
- Inhibition level, Homo sapiens, s ([10]; plate F3, inhibitor 100 uM): 2
- Inhibition level, Homo sapiens c ([10]; inhibitor 100 uM): 2
- Inhibition level, Homo sapiens, o ([10]; Ro-31-8220, conc. not given): 0
- Inhibition level, Homo sapiens, o ([10]; inhibitor 100 uM): 2
- Inhibition level, Homo sapiens, S ([10]; plate F6, Ro-31-8220, conc. not given): 0
- Inhibition level, Homo sapiens, S ([10]; plate F6, inhibitor 100 uM): 2
- Inhibition level, Homo sapiens, B ([10]; Ro-31-8220, conc. not given): 2
- Inhibition level, Homo sapiens, B ([10]; inhibitor 100 uM): 0
- Inhibition level, Homo sapiens, s ([10]; plate F8, Ro-31-8220, conc. not given): 2
- Inhibition level, Homo sapiens, s ([10]; plate F8, inhibitor 100 uM): 0
- Inhibition level, Homo sapiens in ([10]; Ro-31-8220, conc. not given): 2
- Inhibition level, Homo sapiens in ([10]; inhibitor 100 uM): 0
- Inhibition level, Homo sapiens p ([10]; Ro-31-8220, conc. not given): 2
- Inhibition level, Homo sapiens p ([10]; inhibitor 100 uM): 2
- Inhibition level, MARK2 [11]: 2
- Inhibition level, MAP3K3 ([12]; Ro-31-8220 90 uM): 2
- Inhibition level, MAP3K3 ([12]; inhibitor 100 uM): 0
- Inhibition level, MAP3K7 ([13]; Ro-31-8220 90 uM): 2
- Inhibition level, MAP3K7 ([13]; inhibitor 100 uM): 2

SMILES: CC(=O)c1c(O)c(C)c(O)c(Cc2c(O)c3c(c(C(=O)/C=C/c4ccccc4)c2O)OC(C)(C)C=C3)c1O [Rottlerin (Mallotoxin)]
- Inhibition level, FGFR2 ([1]; plate B4, inhibitor 100 uM): 0
- Inhibition level, FGFR2 ([1]; plate G8, inhibitor 100 uM): 2
- Inhibition level, ITK [2]: 1
- Inhibition level, ABL1 ([3]; inhibitor 100 uM): 0
- Inhibition level, DYRK1A ([4]; inhibitor 100 uM): 0
- Inhibition level, RET ([5]; inhibitor 100 uM): 0
- Inhibition level, DAPK2 ([6]; inhibitor 100 uM): 1
- Inhibition level, STK16 ([7]; inhibitor 100 uM): 0
- Inhibition level, TLK2 ([8]; inhibitor 100 uM): 2
- Inhibition level, PTK2B ([9]; inhibitor 100 uM): 2
- Inhibition level, Homo sapiens, S ([10]; plate E9, inhibitor 100 uM): 2
- Inhibition level, Homo sapiens, s ([10]; plate E11, inhibitor 100 uM): 2
- Inhibition level, Homo sapiens, s ([10]; plate F3, inhibitor 100 uM): 0
- Inhibition level, Homo sapiens c ([10]; inhibitor 100 uM): 0
- Inhibition level, Homo sapiens, o ([10]; inhibitor 100 uM): 0
- Inhibition level, Homo sapiens, S ([10]; plate F6, inhibitor 100 uM): 0
- Inhibition level, Homo sapiens, B ([10]; inhibitor 100 uM): 2
- Inhibition level, Homo sapiens, s ([10]; plate F8, inhibitor 100 uM): 0
- Inhibition level, Homo sapiens in ([10]; inhibitor 100 uM): 0
- Inhibition level, Homo sapiens p ([10]; inhibitor 100 uM): 2
- Inhibition level, MARK2 [11]: 2
- Inhibition level, MAP3K3 ([12]; inhibitor 100 uM): 2
- Inhibition level, MAP3K7 ([13]; inhibitor 100 uM): 2
